Experimental data: patent publication US9828351B2, “Enzyme interacting agents” (MONASH UNIVERSITY, priority 2014, dated 2017)
Where two headings read alike, the source gives them in different places.

Tests used:
[1] = tested on: PC3 prostate cancer cell lines; assay: Anticancer activity in PC3 cell line, CellTitre AQueous One cell viability assay; type: cell-based; details: concentration required to inhibit cell proliferation by 50%, 72 hours
Experimental: Measurement of Anticancer Activity in PC3 Cell Line Assays
PC3 prostate cancer cell lines were cultured in DMEM (containing 10% fetal calf serum and penicillin-streptomycin).
Before treatment with drug compounds, cells were plated at 2,500 cells/well in 96 well plates and incubated at 37° C. with 5% CO2 in a humidified incubator for 24 hours prior. Cells were only plated in columns 3-10 and rows C—F to ensure uniform humidity and warmth across all wells. The remaining wells were filled with 100 μL of phosphate buffered saline.
Drug stock solutions (50 or 10 mM) were diluted×1000 in media to a final concentration of either 50 μM or 10 μM with a DMSO vehicle concentration of 0.1%.
Cell culture supernatants were aspirated and replaced with drug containing media. Drug treatments were performed in duplicate wells, while potential plate layout-specific variation in cell growth was accounted for by addition of a vehicle control (0.1% DMSO).
Cells were then incubated with drug compounds at 37° C. with 5% CO2 in a humidified incubator for 72 hours prior to assay.
Media was diluted with CellTitre AQueous One Solution (Promega, Australia; Cat # G3580) according to manufacturer's instructions to produce a final concentration of 317 μg/mL.
Cell culture supernatants were then aspirated from wells and replaced with 100 μL of CellTitre solution. Triplicate cell-free control wells containing only CellTitre solution were also included in each assay.
Cells were then incubated at 37° C. with 5% CO2 in a humidified incubator for 1 hour at which time absorbance was read at 490 nm with an EnVision microplate reader (Perkin Elmer, Australia).
When analysing data, background absorbance (taken from cell-free control wells) was subtracted from each reading. […] For each drug concentration the mean (±SEM) is calculated and graphed using GraphPad Prism (version 5). A sigmoidal curved is fitted to the data and used to calculate the IC50 of each compound.

[2] = biological target: T1, recombinant his tagged human SphK1 (Homo sapiens, UniProt Q9NYA1); assay: SphK1 activity assay (32P-labelled S1P production); type: biochemical; details: 10 μM compound; % of activity compared to control (DMSO vehicle only)
T1 construct: His tag; made in house; host or cells: insect cells (baculovirus system)
T1 sequence (Q9NYA1 whole entry): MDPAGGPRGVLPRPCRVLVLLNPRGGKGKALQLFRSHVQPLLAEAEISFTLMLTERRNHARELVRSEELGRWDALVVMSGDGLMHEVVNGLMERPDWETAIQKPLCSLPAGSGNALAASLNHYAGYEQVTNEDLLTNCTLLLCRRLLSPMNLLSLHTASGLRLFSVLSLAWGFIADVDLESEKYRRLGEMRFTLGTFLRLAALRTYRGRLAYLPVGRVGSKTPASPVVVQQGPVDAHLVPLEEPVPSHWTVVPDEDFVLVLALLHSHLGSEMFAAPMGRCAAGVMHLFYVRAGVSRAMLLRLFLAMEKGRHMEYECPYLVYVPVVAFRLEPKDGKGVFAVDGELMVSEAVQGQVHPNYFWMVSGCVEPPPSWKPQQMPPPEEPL
Experimental: (§1) The SphK assays employed, measure SphK activity through the production of ^32P-labelled S1P following the addition of exogenous Sph and [γ^32P] ATP.
(§2) Activities of SphK1 and SphK2 were determined using identical assay conditions with the exception that SphK1 assays used 3 ng/assay recombinant his tagged human SphK1 (made in the lab in a baculovirus system using insect cells), while SphK2 assays used 30 ng/assay recombinant human SphK2 (purchased by Johnson and Johnson).
(§3) Compounds were dissolved in DMSO at 10 mM, the mixture was vortexed (and sonicated if necessary). Stock solutions were kept at 4° C. until used.
(§4) Aliquots were made containing 100 μM drug compound. These aliquots were then diluted in assay buffer: 100 mM tris/HCl pH 7.4, 100 mM NaCl, 1 mM sodium orthovanadate, 10 mM NaF to make up a 10 μM solution.
(§5) Recombinant enzyme was diluted in assay buffer (above) to make up a final concentration of 0.03 ng/μL (SphK1) or 0.33 ng/μL (SphK2).
(§6) 40 μL recombinant enzyme was added to an Eppendorf® Safe-Lock® microcentrifuge tube. This was followed by the addition of drug compound from prepared aliquots, before adding ATP, [γ^32P]ATP and Sph. Note: ATP stock is made up in 1M Tris pH 7.4 and 200 mM MgCl2. This allows ATP to complex with Mg and be available as a substrate.
(§7) The rest of the reaction mixture was then added to the enzyme sample (Table 1). All reactions were performed as triplicates.
(§8) Reaction mixture was prepared with sufficient volume to assay all of the required samples. To do this, each of the volumes shown was multiplied by n+1, where n is the number of samples to be assayed. Assay buffer used is made up of 100 mM tris/HCl pH 7.4, 100 mM NaCl, 1 mM sodium orthovanadate and 10 mM NaF.
(§9) The mixture was then incubated at 37° C. for 20 min (SphK1)/45 min (SphK2).
(§10) To the 100 μL assay mixture, add 270 μl of chloroform/methanol/conc. HCl (100:200:1).
(§11) 20 μL of 5 M KCl was then added to the assay mixture.
(§12) 70 μL of chloroform was added to create phase separation. The solution was vortexed to mix well.
(§13) The solution was then centrifuged for 5 min at 13,000×g to fully separate the phases.
(§14) The upper aqueous/methanol phase was separated by aspiration.
(§15) 50 μL of the remaining lower chloroform phase […] was applied onto the TLC plate by repeatedly spotting a few microliters of liquid (<5 mm diameter circle) between each sample spot with the pipette tip. The liquid was then allowed to absorb into the plate before drying with a stream of air.
(§16) The TLC plate was developed in a glass TLC developing tank with 1-butanol/ethanol/glacial acetic acid/H2O (8:2:1:2) until the mobile phase is within 1 cm of the top of the TLC plate.
(§17) The TLC plate was then exposed to a storage phosphor screen overnight. Storage phosphor screens work by capturing images produced by ionising radiation (e.g. ^32P). The phosphorimager stimulates the screen which uses lasers to convert the latent signal to light. Light is proportional to the amount of radioactivity in the sample. The image is then quantified using standard quantification software (ImageQuant™). Whatman paper with the assay mixture dilutions, was included to assist quantification of the phosphor signal.
(§18) Once the storage phosphor screen was read using the phosphorimager, S1P spots, which have an Rf of 0.7 with the mobile phase employed, were quantified.
(§19) The S1P spot intensity can be converted to the amount of phosphate transferred/min/mg protein.

recombinant human SphK2 = biological target: T2, recombinant human SphK2 (Homo sapiens, UniProt Q9NRA0); assay: SphK2 activity assay (32P-labelled S1P production); type: biochemical; details: 10 μM compound, % of activity compared to control (DMSO vehicle only); for remaining activity at 10 µM: read-out: SphK2% actvity at 10 μm
T2 construct: purchased Johnson and Johnson
T2 sequence (Q9NRA0 1-654): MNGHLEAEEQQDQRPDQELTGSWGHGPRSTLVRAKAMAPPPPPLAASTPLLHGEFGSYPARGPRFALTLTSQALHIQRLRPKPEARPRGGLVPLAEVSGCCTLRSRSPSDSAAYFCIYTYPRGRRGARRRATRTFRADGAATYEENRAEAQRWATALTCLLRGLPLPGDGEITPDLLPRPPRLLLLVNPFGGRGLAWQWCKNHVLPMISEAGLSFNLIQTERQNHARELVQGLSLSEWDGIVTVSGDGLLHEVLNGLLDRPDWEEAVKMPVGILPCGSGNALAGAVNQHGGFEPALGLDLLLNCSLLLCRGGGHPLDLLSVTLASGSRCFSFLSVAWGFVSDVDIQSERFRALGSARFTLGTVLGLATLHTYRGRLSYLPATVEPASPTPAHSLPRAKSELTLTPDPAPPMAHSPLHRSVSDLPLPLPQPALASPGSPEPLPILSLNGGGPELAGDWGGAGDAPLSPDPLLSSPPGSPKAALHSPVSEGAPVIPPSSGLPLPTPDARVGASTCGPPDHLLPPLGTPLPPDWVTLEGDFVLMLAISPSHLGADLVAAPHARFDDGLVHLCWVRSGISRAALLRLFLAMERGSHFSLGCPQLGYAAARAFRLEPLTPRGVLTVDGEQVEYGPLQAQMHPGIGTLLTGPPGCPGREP
Experimental: as §1, §2, §3, §4, §5, §6, §7, §8, §9, §10, §11, §12, §13, §14, §15, §16, §17, §18, §19

[3] = biological target: T3, Dihydroceramide Desaturase-1 (Des1) (Homo sapiens, UniProt O15121); assay: Dihydroceramide desaturase-1 (Des1) activity by HPLC in intact Jurkat cells labeled with DhCer-C6-NBD; type: cell-based
T3 construct: These modifications included the use of parental Jurkat cells; endogenous in cells; host or cells: parental Jurkat cells
T3 sequence (O15121 1-323): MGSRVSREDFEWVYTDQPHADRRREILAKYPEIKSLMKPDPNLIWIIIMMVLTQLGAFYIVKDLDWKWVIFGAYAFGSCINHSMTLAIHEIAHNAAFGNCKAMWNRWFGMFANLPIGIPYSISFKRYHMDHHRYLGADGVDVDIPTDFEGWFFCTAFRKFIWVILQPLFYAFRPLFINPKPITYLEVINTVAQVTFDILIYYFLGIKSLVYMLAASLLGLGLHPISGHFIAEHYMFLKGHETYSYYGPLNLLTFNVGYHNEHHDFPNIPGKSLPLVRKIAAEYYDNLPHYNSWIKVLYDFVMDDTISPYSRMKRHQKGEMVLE
Experimental: Measurement of Dihydroceramide Desaturase-1 (Des1) Activity:
These modifications included the use of parental Jurkat cells, 0.5% serum in the culture media, and cell harvesting via centrifugation at 500×g to maximise ceramide extraction. Extracted samples (50 ul) were analysed on a Waters HPLC coupled to a fluorescence detector using a 30 cm C18 reverse-phase column eluted with 1 ml/min 20% H2O and 80% acetonitrile, both with a 0.1% of trifluoroacetic acid.

[4] = intact Jurkat cells, read-out: Des 1 IC50

| Compound | IC50 ([1]; Homo sapiens, PC-3) [µM] | activity at 10 µM [2] [%] | remaining activity at 10 µM (recombinant human SphK2) [%] | IC50 [3, 4] [µM] | also measured |
| --- | --- | --- | --- | --- | --- |
| O=C(Nc1ccc(-c2nnc(-c3ccc(Cl)cc3)o2)cc1)[C@H]1NCC[C@@H]1O [Example E-12, (2S,3S)-2-((4-(5-(4-chlorophenyl)-1,3,4-oxadiazol-2-yl)phenyl)carbamoyl)-3-hydroxypyrrolidin-1-ium chloride] | > 100 | 50 to 80 | 20 to 50 |  |  |
| Oc1ccc(Nc2nc(-c3ccc(Cl)cc3)no2)cc1 [Example E-4, 4-((3-(4-Chlorophenyl)-1,2,4-oxadiazol-5-yl)amino)phenol] |  |  |  | 1 to 10 |  |
| 3-(4-((5-(4-Chlorophenyl)-1,3,4-oxadiazol-2-yl)amino)phenyl)-1,2,4-oxadiazol-5(4H)-one [Example E-16] |  |  |  |  | IC50 [1]: 0.1 to 1 µM; SphK1% activity at 10 μm [2]: 100-150%; Des 1 IC50 ([3]; intact Jurkat cells): inactive; SphK2% actvity at 10 μm (recombinant human SphK2): 100-150% |
| Oc1ccc(Nc2nnc(-c3ccc(C(F)(F)F)cc3)o2)cc1 [Example E-26, 4-((5-(4-(Trifluoromethyl)phenyl)-1,3,4-oxadiazol-2-yl)amino)phenol] |  |  |  |  | IC50 [3]: 0.1 to 1 µM |
| Oc1ccc(Nc2nnc(-c3ccc(Cl)cc3)o2)cc1 [Example E-1, 5-(4-Chlorophenyl)-N-(4-hydroxyphenyl)-1,3,4-oxadiazol-2-amine] |  |  |  | 0.1 to 1 |  |
| Cc1nc(-c2ccc(Nc3nnc(-c4ccc(Cl)cc4)o3)cc2)no1 [Example E-10, 5-(4-Chlorophenyl)-N-(4-(5-methyl-1,2,4-oxadiazol-3-yl)phenyl)-1,3,4-oxadiazol-2-amine] | > 100 | 80 to 100 | 50 to 80 |  |  |
| Cl.N=C(N)c1ccc(Nc2nnc(-c3ccc(Cl)cc3)o2)cc1 [Example E-23, Amino(4-((5-(4-chlorophenyl)-1,3,4-oxadiazol-2-yl)amino)phenyl)methaniminium chloride] |  |  |  |  | Des 1 IC50 ([3]; intact Jurkat cells): inactive |
| O=C(NCc1ccc(-c2nnc(-c3ccc(Cl)cc3)o2)cc1)[C@H]1NCC[C@@H]1O [Example E-18, (2S,3S)-2-((4-(5-(4-chlorophenyl)-1,3,4-oxadiazol-2-yl)benzyl)carbamoyl)-3-hydroxypyrrolidin-1-ium chloride] | > 100 | 50 to 80 | 80 to 100 |  |  |
| Oc1ccc(Nc2nc(-c3ccc(Cl)cc3)ns2)cc1 [Example E-32, 4-((3-(4-chlorophenyl)-1,2,4-thiadiazol-5-yl)amino)phenol] |  |  |  | 0.1 to 1 |  |
| N=C(N)c1ccc(-c2nnc(-c3ccccc3)o2)cc1 [Example E-17, Amino(4-(5-phenyl-1,3,4-oxadiazol-2-yl)phenyl)methaniminium chloride] | > 100 | 200 to 300 | 80 to 100 |  |  |
| Oc1ccc(Nc2nsc(-c3ccc(Cl)cc3)n2)cc1 [Example E-31, 4-((5-(4-chlorophenyl)-1,2,4-thiadiazol-3-yl)amino)phenol] |  |  |  | 0.1 to 1 |  |
| Oc1ccc(Nc2nnc(-c3ccc(Cl)cc3)s2)cc1 [Example E-2, 4-((5-(4-Chlorophenyl)-1,3,4-thiadiazol-2-yl)amino)phenol] |  |  |  | 1 to 10 |  |
| Oc1ccc(Nc2nnc(-c3ccc(I)cc3)o2)cc1 [Example E-24, 4-((5-(4-Iodophenyl)-1,3,4-oxadiazol-2-yl)amino)phenol] |  |  |  | 1 to 10 |  |
| O=C(Nc1ccc(O)cc1)c1csc(-c2ccc(Cl)cc2)n1 [Example E-6, 2-(4-Chlorophenyl)-N-(4-hydroxyphenyl)thiazole-4-carboxamide] | > 100 | 20 to 50 | 50 to 80 |  |  |
| N/C(=N\O)c1ccc(Nc2nnc(-c3ccc(Cl)cc3)o2)cc1 [Example E-9, (Z)-4-((5-(4-Chlorophenyl)-1,3,4-oxadiazol-2-yl)amino)-N′-hydroxybenzimidamide] |  |  |  | 1 to 10 |  |
| Clc1ccc(-c2nnc(NCc3ccncc3)o2)cc1 [Example E-30, 5-(4-Chlorophenyl)-N-(pyridin-4-ylmethyl)-1,3,4-oxadiazol-2-amine] | > 100 | 1 to 5 | 20 to 50 |  |  |
| N=C(N)c1ccc(Nc2nnc(-c3ccccc3)o2)cc1 [Example E-20, Amino(4-((5-phenyl-1,3,4-oxadiazol-2-yl)amino)phenyl)methaniminium chloride] | > 100 | 80 to 100 | 20 to 50 |  |  |
| Oc1ccc(Nc2noc(-c3ccc(Cl)cc3)n2)cc1 [Example E-3, 4-((5-(4-Chlorophenyl)-1,2,4-oxadiazol-3-yl)amino)phenol] |  |  |  | 1 to 10 |  |
